{
  "source": "the NIST ThermoML archive (doi:10.1021/je8002223)",
  "key": {"[1]": {"experiment": "Molar enthalpy of transition or fusion"}, "[2]": {"settings": "DTA"}},
  "note": "Numbers after ± are expanded uncertainties.",
  "data": [
    {"smiles": "[Cl][Ce]([Cl])[Cl]", "note": "[cerium trichloride]", "values": [
      {"measurement": "Molar enthalpy of transition or fusion", "setting": "[1]; Crystal", "value": "13.3 ± 1.43", "unit": "kcal/mol"},
      {"measurement": "Normal melting temperature", "setting": "[2]; Crystal", "value": "813 ± 2", "unit": "°C"}
    ]},
    {"smiles": "[Cl-].[Cs+]", "note": "[cesium chloride]", "values": [
      {"measurement": "Molar enthalpy of transition or fusion", "setting": "[1]; Crystal 1", "value": "4.85 ± 0.574", "unit": "kcal/mol"},
      {"measurement": "Molar enthalpy of transition or fusion", "setting": "[1]; Crystal 2", "value": "0.908 ± 0.191", "unit": "kcal/mol"},
      {"measurement": "Triple point temperature", "setting": "[2]; Crystal 1", "value": "918 ± 2", "unit": "K"},
      {"measurement": "Triple point temperature", "setting": "[2]; Crystal 2", "value": "743 ± 2", "unit": "K"}
    ]}
  ]
}
